# Biological target: T1, human ADRA2B receptor (Homo sapiens, UniProt P18089)
# T1 construct: expressed in transfected cells
# T1 sequence (P18089 1-450): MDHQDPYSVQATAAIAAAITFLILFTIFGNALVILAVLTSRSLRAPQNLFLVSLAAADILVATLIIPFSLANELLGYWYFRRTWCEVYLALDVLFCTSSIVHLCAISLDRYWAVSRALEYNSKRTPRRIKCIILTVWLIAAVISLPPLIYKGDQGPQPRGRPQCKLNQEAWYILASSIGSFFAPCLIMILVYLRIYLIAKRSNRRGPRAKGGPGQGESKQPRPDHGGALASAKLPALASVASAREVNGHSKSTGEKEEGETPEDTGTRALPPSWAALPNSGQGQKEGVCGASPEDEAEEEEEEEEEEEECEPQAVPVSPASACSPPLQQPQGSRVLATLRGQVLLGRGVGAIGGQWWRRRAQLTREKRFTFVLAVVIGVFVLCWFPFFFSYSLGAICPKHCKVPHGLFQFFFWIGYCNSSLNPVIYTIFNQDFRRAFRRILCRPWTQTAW
# Assay: GTPγS agonist assay, ADRA2B receptor
# Assay type: biochemical
# Conditions: read-out: GTPase - Human Alpha2B EC50
# Method: GTP ? S Agonist Assays (ADRA2A, ADRA2B, and ADRA2C Receptors)
# Membranes were prepared for GTP ? S binding assays from CHO-K1 cells stably expressing human ADRA2A, ADRA2B, or ADRA2C receptor. Briefly, cells were grown in 5-layer cell culture flasks. Cells were washed with 50 mL of PBS and then dissociated with 0.05% trypsin. Dissociated cells were then collected by centrifugation at 650×g for 8 min at 4° C. Pellets were washed again in PBS by centrifugation and resuspended in 30 mL of 20 mM HEPES, 10 mM EDTA, pH 7.4. After sitting on ice for 30 min, membranes were collected by centrifugation at 50000×g for 15 min at 4° C., resuspended in 30 mL of 20 mM HEPES, 0.1 mM EDTA, pH 7.4 and collected again by centrifugation. Pellets were then washed twice by centrifugation in 30 mL of 20 mM HEPES, pH 7.4, and stored at −80° C. until the day of the assay. On the day of the assay, pellets were thawed on ice and resuspended in 1 mL of 20 mM HEPES, pH 7.4, 10 mM MgCl2, 100 mM NaCl using dounce homogenization. Membrane protein concentration was determined by BCA protein assay (Promega, Madison, WI) according to Promega guidelines.
# On the day of the assay, serial dilutions of test compounds were brought up in assay buffer (20 mM HEPES, 10 mM MgCl2, 200 mM NaCl) at 10× final assay concentration. 50 μL/well of membrane homogenates (containing 5 μg of membrane protein for ADRA2A, ADRA2B, or 7.5 μg for ADRA2C) were prepared in assay buffer supplemented with GDP at 2× final assay concentration (5 μM GDP) and dispensed into 96 well polypropylene, U-bottom Greiner plates. Then, 10 μL of compounds were added to assay plates and incubated for 10 min at room temperature. […] The binding reaction was incubated for 1 h at 37° C. Membranes in assay reactions were then transferred to GF/C filter plates (UniFilter, Perkin Elmer) and washed three times using a FilterMate Harvester (Perkin Elmer) with cold assay buffer containing no GDP. Filter plates were then dried at 40° C. overnight followed by the addition of 30 μL/well of Beta Plate Scintillation liquid. Plates were top and bottom sealed before being read on TopCount scintillation counter (Perkin Elmer, Waltham, MA).
row,EC50 [µM],Compound
1,0.01 to 0.05,"Cc1cccc([C@@H](Cc2ccccn2)c2cnc[nH]2)c1Cl [Compound 48, 2-[(2R)-2-(2-chloro-3-methylphenyl)-2-(1H-imidazol-4-yl)ethyl]pyridine]"
2,> 0.5,"COc1nccc(CC(c2ccc(C(F)F)cc2)c2c[nH]cn2)n1 (stereo not shown) [Compound 188, 4-{2-[p-(difluoromethyl)phenyl]-2-(4-imidazolyl)ethyl}-2-methoxypyrimidine]"
3,< 0.01,"Cc1c(Cl)cccc1[C@@H](Cc1cccnc1)c1cnc[nH]1 [Compound 63, 3-[(2R)-2-(3-chloro-2-methylphenyl)-2-(1H-imidazol-4-yl)ethyl]pyridine]"
4,0.05 to 0.5,"Cc1c(Cl)cccc1C(Cc1ccccn1)c1cnc[nH]1 (stereo not shown) [Compound 49, 2-[2-(3-chloro-2-methylphenyl)-2-(1H-imidazol-4-yl)ethyl] pyridine]"
5,< 0.01,"Cc1nccc(CC(c2c[nH]cn2)c2cccc3c2ccn3C)n1 (stereo not shown) [Compound 164, 4-[2-(4-imidazolyl)-2 (1-methyl-4-indolyl)ethyl]-2-methylpyrimidine]"
6,< 0.01,"COc1cccc(C[C@@H](c2cnc[nH]2)c2cccc(Cl)c2C)n1 [Compound 15, 2-[(2R)-2-(3-chloro-2-methylphenyl)-2-(1H-imidazol-4-yl)ethyl]-6-methoxypyridine]"
7,0.01 to 0.05,"Cc1nnc(CC(c2c[nH]cn2)c2cccc(C)c2C)o1 (stereo not shown) [Compound 241, 2-[2-(4-imidazolyl)-2-(2,3-xylyl)ethyl]-5-methyl-1,3,4-oxadiazole]"
8,0.05 to 0.5,"COc1nccc(CC(c2c[nH]cn2)c2cccc3c2OCCCO3)n1 (stereo not shown) [Compound 355, 4-[2-(3,4-dihydro-2H-1,5-benzodioxepin-6-yl)-2-(4-imidazolyl)ethyl]-2-methoxypyrimidine]"
9,> 0.5,"Cc1cccc([C@@H](Cc2cccc(C(F)(F)F)n2)c2c[nH]cn2)c1C [Compound 81, 2-[(2R)-2-(2,3-dimethylphenyl)-2-(1H-imidazol-4-yl)ethyl]-6-(trifluoromethyl) pyridine]"
10,> 0.5,"FC(F)(F)c1ccccc1C(Cc1cccnn1)c1c[nH]cn1 (stereo not shown) [Compound 166, 3-{2-(4-imidazolyl)-2-[o-(trifluoromethyl)phenyl]ethyl}pyridazine]"
11,0.01 to 0.05,"COc1nccc(CC(c2c[nH]cn2)c2cccc(Cl)c2OC)n1 (stereo not shown) [Compound 198, 4-[2-(3-chloro-2-methoxyphenyl)-2-(4-imidazolyl)ethyl]-2-methoxypyrimidine]"
12,0.05 to 0.5,"Cc1cccc([C@@H](Cc2cccnn2)c2c[nH]cn2)c1F [Compound 137, 3-[(R)-2-(2-fluoro-3-tolyl)-2-(4-imidazolyl)ethyl] pyridazine]"
13,< 0.01,"c1ccc(C[C@H](c2cnc[nH]2)c2cccc3c2CCO3)nc1 [Compound 41, 2-[(2S)-2-(2,3-dihydro-1-benzofuran-4-yl)-2-(1H-imidazol-4-yl)ethyl]pyridine]"
14,< 0.01,"COc1ncc(C[C@H](c2c[nH]cn2)c2cccc(Cl)c2C)cn1 [Compound 109, 5-[(S)-2-(3-chloro-2-tolyl)-2-(4-imidazolyl)ethyl]-2-methoxy-pyrimidine]"
15,> 0.5,"COc1cccc(C[C@H](c2cccc(C)c2)c2cnc[nH]2)n1 [Compound 24, 2-[(2R)-2-(1H-imidazol-4-yl)-2-(3-methylphenyl)ethyl]-6-methoxypyridine]"
16,< 0.01,"COc1nccc(CC(c2c[nH]cn2)c2cccc(C)c2Cl)n1 (stereo not shown) [Compound 186, 4-[2-(2-chloro-3-tolyl)-2-(4-imidazolyl)ethyl]-2-methoxypyrimidine]"
17,< 0.01,"COCCNc1cccc(CC(c2cnc[nH]2)c2cccc(C)c2C)n1 (stereo not shown) [Compound 84, 6-[2-(2,3-dimethylphenyl)-2-(1H-imidazol-4-yl)ethyl]-N-(2-methoxyethyl) pyridin-2-amine]"
18,> 0.5,"Fc1c(Cl)cccc1C(Cc1cccnn1)c1c[nH]cn1 (stereo not shown) [Compound 219, 3-[2-(3-chloro-2-fluorophenyl)-2-(4-imidazolyl)ethyl] pyridazine]"
19,< 0.01,"COc1nccc(CC(c2c[nH]cn2)c2cccc(Cl)c2C)n1 (stereo not shown) [Compound 185, 4-[2-(3-chloro-2-tolyl)-2-(4-imidazolyl)ethyl]-2-methoxypyrimidine]"
20,> 0.5,"COc1cccc(C[C@@H](c2cnc[nH]2)c2cccc(C)c2OC)n1 [Compound 10, 2-[(2R)-2-(1H-imidazol-4-yl)-2-(2-methoxy-3-methylphenyl)ethyl]-6-methoxypyridine]"
21,< 0.01,"COc1cccc(C[C@@H](c2cccc(C)c2)c2cnc[nH]2)n1 [Compound 23, 2-[(2S)-2-(1H-imidazol-4-yl)-2-(3-methylphenyl)ethyl]-6-methoxypyridine]"
22,> 0.5,"CCOc1c(F)cccc1C(Cc1cccnn1)c1c[nH]cn1 (stereo not shown) [Compound 231, 3-[2-(2-ethoxy-3-fluorophenyl)-2-(4-imidazolyl)ethyl] pyridazine]"
23,< 0.01,"Cc1cccc([C@@H](Cc2ccnn2C)c2c[nH]cn2)c1C [Compound 130, 5-[(R)-2-(4-imidazolyl)-2-(2,3-xylyl)ethyl]-1-methyl-pyrazole]"
24,> 0.5,"Fc1ccc(C(Cc2cccnn2)c2c[nH]cn2)c(F)c1Cl (stereo not shown) [Compound 173, 3-[2-(3-chloro-2,4-difluorophenyl)-2-(4-imidazolyl)ethyl] pyridazine]"
25,> 0.5,"FC(F)(F)Oc1cccc([C@H](Cc2ccccn2)c2cnc[nH]2)c1 [Compound 35, 2-[(2S)-2-(1H-imidazol-4-yl)-2-[3-(trifluoromethoxy)phenyl]ethyl] pyridine]"
26,0.01 to 0.05,"COc1cccc(CC(c2c[nH]cn2)c2cccc3c2OC(F)(F)O3)n1 (stereo not shown) [Compound 125, 2,2-difluoro-4-[1-(4-imidazolyl)-2-(6-methoxy-2-pyridyl)ethyl]-2H-1,3-benzodioxole]"
27,< 0.01,"COc1cccc(C[C@@H](c2c[nH]cn2)c2cccc(Cl)c2Cl)n1 [Compound 98, 4-[(R)-1-(2,3-dichlorophenyl)-2-(6-methoxy-2-pyridyl)ethyl] imidazole]"
28,> 0.5,"COc1cc(OC(F)(F)F)cc(C(Cc2ccnc(OC)n2)c2c[nH]cn2)c1 (stereo not shown) [Compound 204, 4-[2-(4-imidazolyl)-2-(3-methoxy-5-trifluoromethoxyphenyl)ethyl]-2-methoxypyrimidine]"
29,> 0.5,"FC(F)Oc1ccccc1C(Cc1ccccn1)c1c[nH]cn1 (stereo not shown) [Compound 107, 4-[1-(o-difluoro-methoxyphenyl) 2-(2-pyridyl)ethyl] imidazole]"
30,> 0.5,"COc1nccc(CC(c2c[nH]cn2)c2cccc3cn[nH]c23)n1 (stereo not shown) [Compound 172, 7-[1-(4-imidazolyl)-2-(2-methoxy-4-pyrimidinyl)ethyl]-1H-indazole]"

row,Compound,EC50 [µM]
1,"COc1cncc(CC(c2cnc[nH]2)c2cccc(C)c2C)n1 (stereo not shown) [Compound 89, 2-[2-(2,3-dimethylphenyl)-2-(1H-imidazol-4-yl)ethyl]-6-methoxy-pyrazine]",< 0.01
2,"Cc1cccc([C@H](Cc2ccon2)c2c[nH]cn2)c1C [Compound 101, 3-[(S)-2-(4-imidazolyl)-2-(2,3-xylyl)ethyl] isoxazole]",0.05 to 0.5
3,"Cc1cccc([C@@H](Cc2cccnc2)c2cnc[nH]2)c1C [Compound 59, 3-[(2R)-2-(2,3-dimethylphenyl)-2-(1H-imidazol-4-yl)ethyl] pyridine]",< 0.01
4,"Cc1cccc([C@@H](Cc2ccccn2)c2cnc[nH]2)c1C [Compound 52, 2-[(2R)-2-(2,3-dimethylphenyl)-2-(1H-imidazol-4-yl)ethyl] pyridine]",0.01 to 0.05
5,"Cc1cncc(C[C@@H](c2cnc[nH]2)c2cccc(C)c2C)n1 [Compound 83, 2-[(2R)-2-(2,3-dimethylphenyl)-2-(1H-imidazol-4-yl)ethyl]-6-methylpyrazine]",< 0.01
6,"Cc1cccc([C@H](Cc2ccccn2)c2cnc[nH]2)c1C [Compound 51, 2-[(2S)-2-(2,3-dimethylphenyl)-2-(1H-imidazol-4-yl)ethyl] pyridine]",0.05 to 0.5
7,"Cc1cccc([C@H](Cc2cscn2)c2c[nH]cn2)c1C [Compound 120, 4-[(S)-2-(4-imidazolyl)-2-(2,3-xylyl)ethyl]-1,3-thiazole]",> 0.5

# — patent publication US20260042769A1, “TRIARYL AGONISTS OF ALPHA-2 ADRENERGIC RECEPTORS” (ALCEPTOR THERAPEUTICS, INC., priority 2023, published 2026)
